The source of these data is US20250197425A1, “2,6,9-TRISUBSTITUTED PURINES” (ASTRAZENECA AB, priority 2022, published 2025).

≈ marks a conversion by molar mass, not a printed value. Where two headings read alike, the source gives them in different places. Some results are limits rather than exact numbers.

The test system of series [1] is MCF-7 cells. The series is described as follows: Cellular proliferation EdU assay, MCF-7. The following applies: Homo sapiens, MCF7, 48 h, EdU assay, two days; read-out: MCF-7 IC50. Format: cell-based. In a few lines:
(§1)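 MCF-7 (800 cells/well) and OVCAR3 (1200 cells/well) in RPMI with 10% FBS exposed to compounds for two days at 37 °C.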

Series [2] has as its system pRB (S780) in OVCAR3 human ovarian cancer xenograft. The series is described as follows: Pharmacodynamic effect (pRB) in OVCAR3 xenograft model. Format: in vivo, mice. Conditions: 3 days dosing, Western blot. On the procedure: 15 Million OVCAR3 human ovarian cells were implanted subcutaneously in the right flank of female CB17 SCID mice. […] Palbociclib was dosed orally once daily.
(Immunoblotting shows a protein as a band on a membrane.)

The test system of series [3] is pHH3 in T47D P1 human palbociclib resistant ER+ breast cancer xenograft. Kind of series: Pharmacodynamic effect in T47D P1 palbociclib resistant ER+ breast xenograft model. The following applies: 3 days dosing, Western blot.
Description: A study was conducted to evaluate the in vivo pharmacodynamic response of monotherapy with a CDK2 inhibitor and combination therapy with a CDK2 inhibitor and palbociclib in a T47D P1 human palbociclib resistant ER+ breast cancer xenograft model.
T47D P1 cells were generated to be resistant to palbociclib through chronic treatment with palbociclib over the course of about three months with increasing concentrations up to 3 μM. The resulting cells (T47D P1) were then banked for use in subsequent experiments. T47D P1 cells were grown in phenol red free RPMI 1640 supplemented with 10% fetal bovine serum and 3 μM palbociclib. Cells were harvested with 0.25% trypsin and resuspended in PBS/phenol red free Matrigel (50/50).
10 Million T47D P1 cells were implanted orthotopically into the #3 mammary fat pad of female NSG mice. 0.5 mg 90 day release 17B-estradiol pellets from Innovative Research of America were implanted subcutaneously three days prior to cell implant. […] The time course of sample collection was as follows: (i) the test compound at 30 mg/kg groups with and without palbociclib treatment were collected at 2, 4 and 8 hours; and (ii) all other groups were collected at 2, 8 and 24 hours. pHH3 was evaluated by western blotting.
Series [4] has as its system OVCAR3 cells. The series is described as follows: Cell proliferation CyQUANT assay, OVCAR3. In kind it is cell-based. The following applies: Homo sapiens, OVCAR-3, 168 h; CyQUANT cell counts, 7 days. How it is done: (§2) An imaging-based assay was used to investigate changes in cell number in OVCAR3 cells (CCNE1-amplified ovarian cancer cell line) and SKOV3 cells (non-amplified ovarian cancer cell line) treated with test compounds.
(§3) Cells were plated in 384 well plates (Perkin-Elmer 6057300) in RPMI-1640/10% FBS/1× L-Glu at 500 cells per well in 30 μL and incubated with test compound at 37° C. and 5% CO2 for 7 days. Cells were then stained using the CyQuant Direct Cell Proliferation Assay Kit (Thermo Cat #C7026) in accordance with the kit protocol. The stained cells were imaged using an Operetta high content imager to generate cell counts and IC50 values were calculated relative to DMSO controls.

Series [5] concerns pRB (S780) in CTG-3283 human CDK4/6 resistant ER+ breast cancer xenograft. The series is described as follows: Pharmacodynamic effect (pRB) in CTG-3283 xenograft model. Conditions: 3 days dosing, Western blot.
Description: A study was conducted to evaluate the in vivo pharmacodynamic response of monotherapy with a CDK2 inhibitor and combination therapy with a CDK2 inhibitor and palbociclib in a CTG-3283 human CDK4/6 resistant ER+ breast cancer xenograft model.
CTG-3283 fragments were implanted adjacent to the #3 mammory fat pad of female NSG mice. […] Mice were treated for 3 days with vehicle (0.5% HPMC/0.1% Tween 80), palbociclib at 50 mg/kg, test compound at 30 or 60 mg/kg, or the combination of test compound and palbociclib. Test compound was dosed orally twice daily 10 hours apart on day one and two and a single dose in the morning on day 3. Palbociclib was dosed orally once daily. When administered in combination with test compound, palbociclib was dosed 4 hours after the morning dose of test compound on days one and two and 15 minutes after the morning dose of test compound on day 3. The time course of sample collection was as follows: (i) the test compound at 30 mg/kg groups with and without palbociclib treatment were collected at 2, 4, and 8 hours; (ii) all other groups were collected at 2, 8, and 24 hours. pRB (S780) was evaluated by western blotting.
The test system of series [6] is OVCAR3 cells. The series is described as follows: Effect on cell cycle in OVCAR3 cell line (flow cytometry). Format: cell-based, human. Conditions: 20 to 24 hours, 0.03, 0.1, 0.3, 1, and 3 μM. How it is done:
Compounds were tested in the CCNE1-amplified ovarian cell line OVCAR3 to assess their effect on cell cycle phases G1 and S and potential off-target effects on cell cycle phases G2 and M.
OVCAR3 cells were seeded at 60,000 cells per well in 24 well plates, 4 wells per sample, in RPMI with 10% Fetal bovine serum. Test compounds were diluted in 96 well plates in dimethyl sulfoxide (DMSO) and then added to the wells containing the cells. The 24 well plates were placed in an incubator maintained at 37° C. and 5% CO2 and incubated for 20 to 24 hours. The next day an EdU assay was performed following the manufacturer's protocol (Thermo Fisher, C10425 EdU Alexa Fluor 488). Antibody staining was carried out using PE Mouse Anti-Cleaved PARP (BD Biosciences Catalog No. 552933) and 4′,6-diamidino-2-phenylindole (DAPI). Cells were then analyzed by flow cytometry.
(In general: In flow cytometry, cells or beads pass a laser one at a time.)

Series [7] concerns POLR2A Ser2 phosphorylation (CDK9). The series is described as follows: POLR2A Ser2 phosphorylation imaging assay in MCF-7 cells. Format: cell-based. Conditions: Homo sapiens, MCF7, 2 h, read-out: POLR2A Ser2 phosphorylation IC50. In a few lines: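 MCF-7 cells were fixed, permeabilised and immunostained for POLR2A phospho-Ser2, then imaged by high-content microscopy. Levels were normalised to controls and IC50 values derived.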

Series [8] deals with SKOV3 cells. Kind of series: Cell proliferation CyQUANT assay, SKOV3. Format: cell-based. Conditions: Homo sapiens, SK-OV-3, 168 h; CyQUANT cell counts, 7 days. How it is done:
as §2, §3

The subject of series [9] is pRB (S780) in MCF7-PC1 human palbociclib resistant ER+ breast cancer xenograft. The series is described as follows: Pharmacodynamic effect (pRB) in MCF7-PC1 palbociclib resistant ER+ breast cancer xenograft model. Format: in vivo, mice. Conditions: 3 days dosing, Western blot. On the procedure:
MCF7-PC1 cells were generated as described in Example 70.
Palbociclib was dosed orally once daily.

The subject of series [10] is pRB (S780) in CTG-3298 human CDK4/6 resistant ER+ breast cancer xenograft. Kind of series: Pharmacodynamic effect (pRB) in CTG-3298 xenograft model. The following applies: 3 days dosing, Western blot.
Description: A study was conducted to evaluate the in vivo pharmacodynamic response of monotherapy with a CDK2 inhibitor and combination therapy with a CDK2 inhibitor and palbociclib in a CTG-3298 human CDK4/6 resistant ER+ breast cancer xenograft model.
CTG-3298 fragments were implanted adjacent to the #3 mammory fat pad of female NSG mice. […] Mice were treated for 3 days with vehicle (0.5% HPMC/0.1% Tween 80), palbociclib at 50 mg/kg, test compound at 30 or 60 mg/kg, or the combination of test compound and palbociclib. Test compound was dosed orally twice daily 10 hours apart on day one and two and a single dose in the morning on day 3. Palbociclib was dosed orally once daily. When administered in combination with test compound, palbociclib was dosed 4 hours after the morning dose of test compound on days one and two and 15 minutes after the morning dose of test compound on day 3. The time course of sample collection was as follows: (i) the test compound at 30 mg/kg groups with and without palbociclib treatment were collected at 2, 4 and 8 hours; (ii) all other groups were collected at 2, 8, and 24 hours. pRB (S780) was evaluated by western blotting.
The subject of series [11] is OVCAR3 human ovarian cancer xenograft. The series is described as follows: Anti-tumor effect in CCNE1 amplified ovarian xenograft model OVCAR3. Format: in vivo, mice. The following applies: for % INHIBITION: 28 days. How it is done:
15 Million OVCAR3 human ovarian cells were implanted subcutaneously in the right flank of female CB17 SCID mice. Mice were randomized into groups of 8 when average tumor volume reached approximately 160 mm^3. […] Palbociclib was dosed orally once daily.

For series [12], the system named is CTG-3283 human CDK4/6 resistant ER+ breast cancer xenograft. Kind of series: Anti-tumor effect in CTG-3283 CDK4/6 resistant ER+ breast cancer xenograft model. Format: in vivo, mice. Conditions: for % INHIBITION (end of dosing): 28 days. How it is done: CTG-3283 ER+ breast xenograft tumors were harvested from donor mice and cut into fragments approximately 50 mm^3 in volume and then reimplanted adjacent to the #3 mammary fat pad.
CTG-3283 ER+ Breast PDX fragments were implanted orthotopically adjacent to the #3 mammary fat pad using a 10-gauge trocar in female NSG mice. […] Palbociclib was dosed orally once daily.

Series [13] deals with CTG-3298 human CDK4/6 resistant ER+ breast cancer xenograft. Kind of series: Anti-tumor effect in CTG-3298 CDK4/6 resistant ER+ breast cancer xenograft model. Conditions: for % INHIBITION (end of dosing): 28 days. In kind it is in vivo, mice. On the procedure: CTG-3298 ER+ breast xenograft tumors were harvested from donor mice and cut into fragments approximately 50 mm^3 in volume and then reimplanted adjacent to the #3 mammary fat pad.
CTG-3298 ER+ Breast PDX fragments were implanted orthotopically adjacent to the #3 mammary fat pad using a 10-gauge trocar in female NSG mice. […] Palbociclib was dosed orally once daily.

Series [14] addresses CDK1:CCNB1 (Homo sapiens (Human), UniProt P06493). Kind of series: NanoBRET assay in MCF-7 cells, CDK1. Format: cell-based. Conditions: NanoBRET, transfected MCF-7 cells, 2 hours; n = 1 or average; read-out: CDK1 IC50. The essentials: (§4)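 Intracellular target engagement was measured by NanoBRET ratio (460 nm/610 nm) in live MCF-7 cells transiently carrying CDK4:CCND1 (Tracer K-7, 100 μM stock) or CDK1:CCNB1 (Tracer K-9, 400 μM stock).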
Background: BRET reads energy transfer from a luciferase to a nearby fluorophore.

In series [15] the test system is NPM phosphorylation (Thr199, CDK2-cyclin E complex). Kind of series: NPM phosphorylation imaging assay in MCF-7 cells. In kind it is cell-based. The following applies: Homo sapiens, MCF7, 2 hours, 4N DNA cells. In a few lines: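 MCF-7 cells were fixed, permeabilised and immunostained, then imaged for phospho-NPM (Thr199), a CDK2-cyclin E site. Analysis was gated on 4N-DNA cells by Hoechst staining. Signals were normalised to controls and fitted for IC50.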

For series [16], the target named is CDK2:CCNE1 (Homo sapiens (Human), UniProt P24941). The series is described as follows: NanoBRET assay in MCF-7 cells, CDK2. In kind it is cell-based. Conditions: transfected MCF-7 cells, 2 hours, n = 1 or average. In a few lines: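 In live MCF-7 cells, compound added followed by NanoBRET TE Tracer K-9 (stock 200 μM) for CDK2, 2 h at 37° C, 5% CO2.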
The nature of series [17]: CLint assessment in human hepatocytes (HH). Format: in vitro ADME. Also noted: unit not given here. The following applies: pH 7.4. On the procedure:
Samples were shaken at 800 rpm for 2 minutes and centrifuged at 4000 rpm for 20 minutes at 4° C. to pellet precipitated protein. The supernatant fraction was diluted 1:5 with deionized water, shaken at 1000 rpm for 2 minutes, and further diluted 1:1 with deionized water. Samples were analyzed by LC-MS/MS.

A short description of series [18]: Aqueous thermodynamic solubility, shake-flask. Format: physicochemical. The following applies: aqueous phosphate buffer, 25 °C, pH 7.4, aqueous buffer, thermodynamic from solid, phosphate buffer 0.1 M, pH 7.4, 24 hours. The essentials: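 After 24 h stirring at 25° C. in pH 7.4 phosphate buffer (0.1 M), solid-free supernatant from two centrifugations was quantified by UPLC/MS/MS after dilution in water. Compound was added as dried material after DMSO removal.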

Series [19] has as its target CDK4:CCND1 (Homo sapiens (Human), UniProt P11802). The series is described as follows: NanoBRET assay in MCF-7 cells, CDK4. In kind it is cell-based. Conditions: NanoBRET, transfected MCF-7 cells, 2 hours; n = 1 or average; read-out: CDK4 IC50. In a few lines:
as §4

A short description of series [20]: CLint assessment in human liver microsomes (HLM). In kind it is in vitro ADME. The following applies: 1 μM. In a few lines: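 Microsomes preincubated 8 min with NADPH, then compound added and incubated 30 min at 37° C. Remaining compound measured by LC-MS/MS. t1/2 and CLint calculated, with CLint scaled to incubation volume per mg microsomal protein.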
The test system of series [21] is OVCAR3 cells. The series is described as follows: Cellular proliferation EdU assay, OVCAR3. Format: cell-based, human. Conditions: Homo sapiens, OVCAR-3, 48 h, EdU assay, two days; read-out: OVCAR3 IC50. In a few lines: as §1
The mark [22] stands for this setting: Compound 6 at 30 mg/kg orally twice daily.
Setting [23] is: Compound 6 at 60 mg/kg orally twice daily.

Sequence of CDK4:CCND1 (P11802 whole entry): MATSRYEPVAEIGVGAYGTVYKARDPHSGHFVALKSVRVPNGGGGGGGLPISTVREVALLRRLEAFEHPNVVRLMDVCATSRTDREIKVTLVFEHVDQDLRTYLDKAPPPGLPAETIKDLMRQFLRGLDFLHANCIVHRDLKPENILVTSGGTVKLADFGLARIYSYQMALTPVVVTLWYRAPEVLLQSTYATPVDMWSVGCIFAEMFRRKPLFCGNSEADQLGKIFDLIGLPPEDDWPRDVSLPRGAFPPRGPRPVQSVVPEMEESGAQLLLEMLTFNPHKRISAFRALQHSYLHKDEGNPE
Sequence of CDK4:CCND1 (P24385 whole entry partner): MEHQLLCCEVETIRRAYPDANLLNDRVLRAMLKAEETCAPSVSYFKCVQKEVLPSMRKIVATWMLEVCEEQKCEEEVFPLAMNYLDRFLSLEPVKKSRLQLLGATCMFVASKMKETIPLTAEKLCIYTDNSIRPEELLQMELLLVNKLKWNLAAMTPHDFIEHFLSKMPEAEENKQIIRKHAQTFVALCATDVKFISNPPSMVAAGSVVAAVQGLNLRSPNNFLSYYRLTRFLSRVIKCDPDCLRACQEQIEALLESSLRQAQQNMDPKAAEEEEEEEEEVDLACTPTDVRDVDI
Sequence of CDK1:CCNB1 (P06493 whole entry): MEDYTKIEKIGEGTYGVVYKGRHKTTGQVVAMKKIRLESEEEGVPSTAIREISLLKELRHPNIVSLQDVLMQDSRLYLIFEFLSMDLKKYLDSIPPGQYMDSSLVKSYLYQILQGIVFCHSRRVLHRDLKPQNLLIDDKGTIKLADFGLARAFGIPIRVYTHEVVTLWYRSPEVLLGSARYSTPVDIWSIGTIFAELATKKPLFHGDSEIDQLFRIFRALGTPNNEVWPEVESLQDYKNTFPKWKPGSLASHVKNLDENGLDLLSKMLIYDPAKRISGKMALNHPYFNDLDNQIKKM
Sequence of CDK1:CCNB1 (P14635 whole entry partner): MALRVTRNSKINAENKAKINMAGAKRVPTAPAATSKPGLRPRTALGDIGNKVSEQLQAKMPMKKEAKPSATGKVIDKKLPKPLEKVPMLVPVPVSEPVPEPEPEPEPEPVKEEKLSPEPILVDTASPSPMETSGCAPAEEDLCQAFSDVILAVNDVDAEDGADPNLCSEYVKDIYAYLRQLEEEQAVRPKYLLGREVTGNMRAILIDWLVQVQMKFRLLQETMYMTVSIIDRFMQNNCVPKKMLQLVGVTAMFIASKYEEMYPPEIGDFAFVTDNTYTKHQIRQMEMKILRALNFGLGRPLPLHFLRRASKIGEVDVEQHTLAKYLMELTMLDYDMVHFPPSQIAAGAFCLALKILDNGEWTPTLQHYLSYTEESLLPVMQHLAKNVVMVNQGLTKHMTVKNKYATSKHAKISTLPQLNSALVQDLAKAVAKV

Take `CCNS(=O)(=O)N1CC[C@H](Nc2nc(N[C@@H](CC)[C@@H](C)O)nc3c2ncn3CC)C1` [Compound 6, (S)—N-ethyl-3-((9-ethyl-2-(((2R,3S)-2-hydroxypentan-3-yl)amino)-9H-purin-6-yl)amino)pyrrolidine-1-sulfonamide]: the IC50 is 278 nM in series [1], 77 nM in [4], greater than 19300 nM in series [7] and 1960 nM in series [8]. For the same molecule, the pRB levels result was “time dependent inhibition of pRB” in series [2], “dose dependent inhibition of pRB” in series [5], “time dependent inhibition of pRB” in series [9] and “dose dependent inhibition of pRB” in [10]. In series [3], the pHH3 levels result is recorded as “time dependent inhibition of pHH3”. For the same molecule, the “effect on cell cycle phase” value in series [6] is “increased the population of cells in the G0 and G1 phases”. In addition, the “% INHIBITION” value in series [11] (setting [22]) is listed as 31%; in series [11] (Compound 6 at 100 mg/kg orally twice daily) it was 94%; in [11] (Compound 6 at 150 mg/kg orally twice daily), greater than 100%. In series [11] (Compound 6 at 150 mg/kg, compared to Compound 6 at 100 mg/kg group), the “durability on monitoring for regrowth” value was “showed increased durability”. For the same molecule, in series [12] (CTG-3283 xenograft, Compound 6 at 30 and 60 mg/kg monotherapy or combination with palbociclib), the tumor growth inhibition result is “lower inhibition of tumor growth”. The “% INHIBITION (end of dosing)” value is 28% in series [12] (setting [22]), 21% in [12] (setting [23]), 82% in series [13] (setting [22]) and 87% in series [13] (setting [23]). In series [13] (Compound 6 at 60 mg/kg without palbociclib), the durability of response entry was “more durable response”.

Regarding `CC[C@H](CO)Nc1nc(N[C@H]2CCN(S(=O)(=O)NC)C2)c2ncn(CC)c2n1` [Example 47, (S)-3-((9-ethyl-2-(((R)-1-hydroxybutan-2-yl)amino)-9H-purin-6-yl)amino)-N-methylpyrrolidine-1-sulfonamide], the IC50 in series [1] is 705 nM; in [14] it was 562 nM; in series [15] it was 152 nM; in series [16], 35 nM; in series [19], 7400 nM; in series [7] (MCF-7 cells, 2 hours), greater than 30000 nM. The IC50 in series [21] is 185 nM. In [17], this molecule gave a microsomal CLint at 1 μM of less than 1. The same molecule gave a solubility at 24 h in [18] of 253 µM (≈ 104 µg/mL). Further, the “HLM CLint” value in series [20] stood at 26 µL/min/mg.

In general, IC50 refers to the point on the concentration scale where inhibition reaches its midpoint. What is called solubility is the dissolved amount per volume that the medium holds.
